According to publication PMC8310135 (Viruses, 2021):
Structures can show the parent of a compound that is named as a salt. Where two headings read alike, the source gives them in different places.

How the values were obtained:
rLUJV/ZsG = assay: microbe, parasite or virus in culture; assay type: cell-based, Lujo virus
in vitro = details: human; for CC50: CC50 (50% cell cytotoxicity concentration)
[1] = Mammarenavirus lujoense, Huh-7, 50 nM, read-out: Relative ZsG (%) Mean
[2] = Mammarenavirus lujoense, Huh-7, 500 nM, read-out: Relative ZsG (%) Mean
[3] = Mammarenavirus lujoense, Huh-7, 5000 nM, read-out: Relative ZsG (%) Mean
[4] = Mammarenavirus lujoense, Huh-7, read-out: EC50 (concentration inhibiting ZsG expression by 50%)
[5] = read-out: EC50 (concentration inhibiting ZsG expression by 50%)
[6] = Mammarenavirus lujoense, Huh-7, read-out: Relative ZsG (%) Mean

SMILES | viability at 0.05 µM (in vitro) [%] | viability at 0.5 µM (in vitro) [%] | viability at 5 µM (in vitro) [%] | activity at 0.05 µM (rLUJV/ZsG; [1]) [%] | activity at 0.5 µM (rLUJV/ZsG; [2]) [%] | activity at 5 µM (rLUJV/ZsG; [3]) [%] | also measured
C[C@@]1(O)[C@H](O)[C@@H](CO)O[C@H]1n1ccc2c(N)ncnc21 [7-DMA] |  |  |  |  |  |  | Cell Viability (%) Mean (Huh7 cells; 50 nM): 98%; Cell Viability (%) Mean (Huh7 cells; 500 nM): 103%; Cell Viability (%) Mean (Huh7 cells; 5000 nM): 113%; Relative ZsG (%) Mean (rLUJV/ZsG; 50 nM): 96%; Relative ZsG (%) Mean (rLUJV/ZsG; 500 nM): 95%; Relative ZsG (%) Mean (rLUJV/ZsG; 5000 nM): 92%
CC(C)C(=O)OC[C@@]1(N=[N+]=[N-])O[C@@H](n2ccc(N)nc2=O)[C@H](OC(=O)C(C)C)[C@@H]1OC(=O)C(C)C [Balapiravir (R1626), Balapiravir] | 104 | 104 | 99 | 139 | 81 | 122 | 
COC(=O)C1=C(C)NC(C)=C(C(=O)OC2CCCN(Cc3ccccc3)C2)C1c1cccc([N+](=O)[O-])c1 (centres unmarked) [Benidipine] | 126 | 129 | 107 | 90 | 81 | 61 | 
CN1[C@@H]2CC[C@H]1C[C@@H](OC(c1ccccc1)c1ccccc1)C2 [Benztropine mesylate] | 126 | 130 | 108 | 110 | 90 | 36 | CC50 (in vitro): > 25 µM; EC50 (rLUJV/ZsG; [4]): 5.14 ± 1.52 µM; EC50 (rLUJV/ZsG; [5]): 5.14 ± 1.52 µM
CN1CCC[C@@H]1CCO[C@](C)(c1ccccc1)c1ccc(Cl)cc1 [Clemastine fumarate] | 115 | 116 | 107 | 95 | 81 | 6 | 
CC(C)/N=c1\cc2n(-c3ccc(Cl)cc3)c3ccccc3nc-2cc1Nc1ccc(Cl)cc1 [Clofazimine] | 120 | 125 | 102 | 88 | 75 | 52 | 
CN(C)CCCN1c2ccccc2CCc2ccc(Cl)cc21 [Clomipramine HCL] | 97 | 97 | 98 | 129 | 103 | 12 | 
CC(C)(C)c1nc(-c2cccc(NS(=O)(=O)c3c(F)cccc3F)c2F)c(-c2ccnc(N)n2)s1 [Dabrafenib] | 119 | 117 | 68 | 87 | 79 | 22 | 
CNCC[C@H](Oc1cccc2ccccc12)c1cccs1 [Duloxetine HCL] | 104 | 109 | 76 |  |  |  | activity at 0.05 µM (rLUJV/ZsG; [6]): 103%; activity at 0.5 µM (rLUJV/ZsG; [6]): 74%; activity at 5 µM (rLUJV/ZsG; [6]): 4%
C#Cc1cccc(Nc2ncnc3cc(OCCOC)c(OCCOC)cc23)c1 [Erlotinib] | 127 | 126 | 110 | 82 | 66 | 65 | 
COc1cc2ncnc(Nc3ccc(F)c(Cl)c3)c2cc1OCCCN1CCOCC1 [Gefitinib] | 128 | 121 | 101 | 77 | 71 | 48 | 
O=c1c(-c2ccc(O)cc2)coc2cc(O)cc(O)c12 [Genistein] | 123 | 111 | 106 | 83 | 68 | 92 | 
Cc1ccc(NC(=O)c2ccc(CN3CCN(C)CC3)cc2)cc1Nc1nccc(-c2cccnc2)n1 [Gleevec] | 101 | 96 | 96 | 95 | 113 | 56 | 
CCOC(=O)C1=C(C)NC(C)=C(C(=O)OCC)C1c1ccccc1/C=C/C(=O)OC(C)(C)C [Lacidipine] | 138 | 129 | 98 | 90 | 90 | 47 | 
CN(C)C(=O)C(CCN1CCC(O)(c2ccc(Cl)cc2)CC1)(c1ccccc1)c1ccccc1 [Loperamide HCL] | 99 | 104 | 85 | 104 | 81 | 1 | CC50 (in vitro): 12.3 ± 3.57 µM; SI (selectivity index, CC50 divided by EC50) (rLUJV/ZsG): 3.3; EC50 (rLUJV/ZsG; [4]): 3.67 ± 0.99 µM; EC50 (rLUJV/ZsG; [5]): 3.67 ± 0.986 µM
Cc1c(F)cc(C(=O)NC2CC2)cc1-c1ccc(C(=O)NCC(C)(C)C)cn1 [Losmapimod] | 113 | 115 | 114 | 60 | 70 | 63 | 

SMILES | viability at 0.05 µM (in vitro) [%] | viability at 0.5 µM (in vitro) [%] | viability at 5 µM (in vitro) [%] | activity at 0.05 µM (rLUJV/ZsG; [1]) [%] | activity at 0.5 µM (rLUJV/ZsG; [2]) [%] | activity at 5 µM (rLUJV/ZsG; [3]) [%] | also measured
Clc1ccc(COC(Cn2ccnc2)c2ccc(Cl)cc2Cl)c(Cl)c1 (centres unmarked) [Miconazole nitrate] | 119 | 120 | 67 | 65 | 78 | 47 | 
CCCCCCCCCCCCCCCCn1cc[n+](Cc2ccccc2)c1C.[I-] [NH125] |  |  |  |  |  |  | Cell Viability (%) Mean (Huh7 cells; 50 nM): 104%; Cell Viability (%) Mean (Huh7 cells; 500 nM): 63%; Cell Viability (%) Mean (Huh7 cells; 5000 nM): 1%; Relative ZsG (%) Mean (rLUJV/ZsG; 50 nM): 60%; Relative ZsG (%) Mean (rLUJV/ZsG; 500 nM): 28%; Relative ZsG (%) Mean (rLUJV/ZsG; 5000 nM): 2%
C#C[C@@]1(O)[C@H](O)[C@@H](CO)O[C@H]1n1ccc2c(N)ncnc21 [NITD008] |  |  |  |  |  |  | Cell Viability (%) Mean (Huh7 cells; 50 nM): 99%; Cell Viability (%) Mean (Huh7 cells; 500 nM): 96%; Cell Viability (%) Mean (Huh7 cells; 5000 nM): 97%; Relative ZsG (%) Mean (rLUJV/ZsG; 50 nM): 122%; Relative ZsG (%) Mean (rLUJV/ZsG; 500 nM): 110%; Relative ZsG (%) Mean (rLUJV/ZsG; 5000 nM): 136%
OC(CNCC(O)C1CCc2cc(F)ccc2O1)C1CCc2cc(F)ccc2O1 (centres unmarked) [Nebivolol] | 110 | 108 | 76 | 76 | 58 | 18 | 
C[C@@]1(F)[C@H](O)[C@@H](CO)O[C@H]1n1ccc(N)nc1=O [PSI-6130] |  |  |  |  |  |  | Cell Viability (%) Mean (Huh7 cells; 50 nM): 100%; Cell Viability (%) Mean (Huh7 cells; 500 nM): 96%; Cell Viability (%) Mean (Huh7 cells; 5000 nM): 99%; Relative ZsG (%) Mean (rLUJV/ZsG; 50 nM): 149%; Relative ZsG (%) Mean (rLUJV/ZsG; 500 nM): 90%; Relative ZsG (%) Mean (rLUJV/ZsG; 5000 nM): 114%
C[C@@]1(F)[C@H](O)[C@@H](CO)O[C@H]1n1ccc(=O)[nH]c1=O [PSI-6206] |  |  |  |  |  |  | Cell Viability (%) Mean (Huh7 cells; 50 nM): 103%; Cell Viability (%) Mean (Huh7 cells; 500 nM): 96%; Cell Viability (%) Mean (Huh7 cells; 5000 nM): 104%; Relative ZsG (%) Mean (rLUJV/ZsG; 50 nM): 141%; Relative ZsG (%) Mean (rLUJV/ZsG; 500 nM): 87%; Relative ZsG (%) Mean (rLUJV/ZsG; 5000 nM): 128%
CC(C)OC(=O)[C@H](C)N[P@@](=O)(OC[C@H]1O[C@@H](n2ccc(=O)[nH]c2=O)[C@](C)(F)[C@@H]1O)Oc1ccccc1 [PSI-7976] |  |  |  |  |  |  | Cell Viability (%) Mean (Huh7 cells; 50 nM): 94%; Cell Viability (%) Mean (Huh7 cells; 500 nM): 99%; Cell Viability (%) Mean (Huh7 cells; 5000 nM): 107%; Relative ZsG (%) Mean (rLUJV/ZsG; 50 nM): 96%; Relative ZsG (%) Mean (rLUJV/ZsG; 500 nM): 80%; Relative ZsG (%) Mean (rLUJV/ZsG; 5000 nM): 124%
CC(C)OC(=O)[C@H](C)N[P@](=O)(OC[C@H]1O[C@@H](n2ccc(=O)[nH]c2=O)[C@](C)(F)[C@@H]1O)Oc1ccccc1 [PSI-7977] | 101 | 97 | 104 | 119 | 95 | 118 | 
CN[C@H]1CC[C@@H](c2ccc(Cl)c(Cl)c2)c2ccccc21 [Sertraline] | 122 | 128 | 107 | 80 | 69 | 35 | 
Cc1cn([C@H]2C=C[C@@H](CO)O2)c(=O)[nH]c1=O [Stavudine] | 101 | 98 | 103 | 125 | 104 | 96 | 
Clc1ccc(CSC(Cn2ccnc2)c2ccc(Cl)cc2Cl)cc1 (centres unmarked) [Sulconazole nitrate] | 132 | 131 | 52 | 86 | 66 | 42 | 
COc1ccc2cc1Oc1ccc(cc1)C[C@H]1c3cc(c(OC)cc3CCN1C)Oc1c(OC)c(OC)cc3c1[C@H](C2)N(C)CC3 [Tetrandrine] | 115 | 95 | 1 | 95 | 75 | 2 | 
CN(C)CCOc1ccc(/C(=C(/CCCl)c2ccccc2)c2ccccc2)cc1 [Toremifene citrate] | 122 | 128 | 93 | 86 | 88 | 9 | CC50 (in vitro): 10.9 ± 3.14 µM; SI (selectivity index, CC50 divided by EC50) (rLUJV/ZsG): 2.6; EC50 (rLUJV/ZsG; [4]): 4.22 ± 0.78 µM; EC50 (rLUJV/ZsG; [5]): 4.22 ± 0.778 µM
N#Cc1cn([C@@H]2O[C@H](CO)[C@@H](O)[C@H]2O)c2ncnc(N)c12 [Toyocamycin] | 97 | 64 | 23 | 69 | 12 | 7 | 
COc1cc2ncnc(Nc3cccc(Cl)c3)c2cc1OC [Tyrphostin AG1478] | 120 | 101 | 111 | 80 | 73 | 87 | 
Cc1cn([C@H]2C[C@H](N=[N+]=[N-])[C@@H](CO)O2)c(=O)[nH]c1=O [Zidovudine] | 97 | 105 | 93 | 99 | 88 | 92 | 
